Assay: Kinetics of MMF-release during incubation in intestinal fluid from the minipig (LC-MS quantification of MMF)
Type: in vitro ADME, Gottingen SPF minipig
Conditions: diluted small intestinal fluid (1/20 v/v with 50 mM KH2PO4, pH 6.8), 37° C., samples at 0-120 min; FIG. 1; DMF as reference
Method: Investigation and Comparision of the Kinetics of MMF-Release of the Different Compounds of the Present Invention and DMF During Incubation in Intestinal Fluid from the Minipig
Intestinal fluid samples were prepared at CiToxLAB Scantox A/S. The samples were taken from 1 female Gottingen SPF minipig from CiToxLAB Scantox A/S standard stock, originally obtained from Ellegaard Gottingen Minipigs A/S, DK-4261 Dalmose, Denmark. The minipig was 10 months old and the body weight was 21 kg. The minipig was identified by an individual number tagged to the pinna of one ear (animal number is documented in the raw data).
The minipig was fasted for approximately 28 hours before sampling of intestinal fluid. […]
Incubations were continued and in case the result of analysis of the 120 min indicated the presence of remaining intact MMF prodrug, additional samples were taken (t=360 or 420 min and at 1,260 or 1,320 min) and analysed.
The concentration/peak area ratio data pairs were subjected to regression analysis with 1/x weighting and the resulting calibration equation was used to quantify the MMF content in incubation samples.

## COC(=O)/C=C/C(=O)OCCN1CCN(CCOC(=O)/C=C/C(=O)OC)CC1 [Example 1, (E)-But-2-enedioic acid-2-{4-[2-((E)-3-methoxycarbonyl-acryloyloxy)-ethyl]-piperazin-1-yl}-ethyl ester methyl ester]
  hydrolysis to MMF (MMF release) compared with DMF: substantially the same hydrolysis to MMF than DMF

— US9663480B2, “BIS-MMF derivatives” (RATIOPHARM GMBH, priority 2013, dated 2017)
